Experimental data reported in US5178873A, “Essential fatty acid treatment” (Efamol Holdings PLC, priority 1990, dated 1993).

Key:
human epidermal PLA2 = assay: inhibition of human epidermal PLA2 activity by fatty acids (1-palmitoyl 2-1-^14 C. palmitoyl phosphatidyl choline substrate); format: biochemical; details: for IC50: purified human epidermal enzyme, standard assay with 1-palmitoyl 2-1-^14 C. palmitoyl phosphatidyl choline; for ability to inhibit PLA2, ranking among fatty acids tested: PLA2 isolated from human skin, stated for both test systems
Experimental: (§1) In the experimental work on which the above discussion is based, epidermal PLA2 was prepared from isolated mouse or human epidermal cells by detergent solubilisation, ion exchange chromatography and gel filtration. Both enzymes had molecular weights in the region of 68,000, a pH optimum around 9.0 and an absolute requirement for calcium ions. Phospholipids were prepared as both unilamellar vesicles and detergent micelles. PLA2 activity was readily detected using these substrates, with no apparent preference for polar head group. For the standard assay, 1-palmitoyl 2-1-^14 C. palmitoyl phosphatidyl choline was used. The reaction was initiated by the addition of purified enzyme and terminated by the addition of chloroform/methanol/acetic acid (3:4:1). The free fatty acid was extracted, separated by thin layer chromatography and quantified by scintillation counting. Ranges of concentrations of various fatty acids were added to the reaction mixture to assess their ability to inhibit PLA2. Dose response curves were constructed and the IC50 value (the concentration of fatty acid required to inhibit enzyme activity by 50%) was estimated. Similar experiments were performed using macrophages isolated from rat peritoneal cavity by lavage.

rat macrophage PLA2 = assay: inhibition of rat macrophage PLA2 activity by fatty acids; format: biochemical; details: for IC50: macrophages isolated from rat peritoneal cavity by lavage; for ability to inhibit PLA2, ranking among fatty acids tested: PLA2 from rat macrophages, stated for both test systems
Experimental: as §1

Row | SMILES | IC50 (human epidermal PLA2) [µM] | IC50 (rat macrophage PLA2) [µM] | ability to inhibit PLA2, ranking among fatty acids tested (human epidermal PLA2) | ability to inhibit PLA2, ranking among fatty acids tested (rat macrophage PLA2)
1 | CCCCCCCCCCC/C=C\CCCCC(=O)O [18:1 cis 6-octadecenoic, cis 6-octadecenoic] | > 100 | > 100 |  | 
2 | CCCCCCCC/C=C\CCCCCCCCCC(=O)O [20:1 cis 11-eicosenoic, cis 11-eicosenoic] | > 100 | > 100 |  | 
3 | CCCCC/C=C\C/C=C\C/C=C\C/C=C\CCCC(=O)O [20:4 cis 5,8,11,14-eicosatetraenoic (AA), cis 5,8,11,14-eicosatetraenoic] | 45 ± 8 | 65 ± 8 | closest to SA in its ability to inhibit PLA2 | closest to SA in its ability to inhibit PLA2
4 | CC/C=C\C/C=C\C/C=C\C/C=C\C/C=C\CCCC(=O)O [cis 5,8,11,14,17-eicosapentaenoic] | 58 ± 4 |  |  | 

The next lines start with results.

Row | IC50 (human epidermal PLA2) [µM] | IC50 (rat macrophage PLA2) [µM] | SMILES | ability to inhibit PLA2, ranking among fatty acids tested (human epidermal PLA2) | ability to inhibit PLA2, ranking among fatty acids tested (rat macrophage PLA2)
5 | 85 ± 5 |  | CCCCC/C=C\C/C=C\CCCCCCCC(=O)O [18:2 cis 9,12-octadecadienoic (linoleic), delta-9,12-octadecadienoic acid] |  | 
6 | 87 ± 6 |  | CCCCC/C=C\C/C=C\CCCCCCCCCC(=O)O [20:2 cis 11,14-eicosadienoic, cis 11,14-eicosadienoic] |  | 
7 | 52 ± 3 |  | CCCCC/C=C\C/C=C\C/C=C\CCCCC(=O)O [cis 6,9,12-octadecatrienoic] |  | 
8 | 61 ± 5 | 71 ± 11 | CCCCC/C=C\C/C=C\C/C=C\CCCCCCC(=O)O [cis 8,11,14-eicosatrienoic] |  | 
9 | 45 ± 6 | 75 ± 9 | CC/C=C\C/C=C\C/C=C\CCCCCCCC(=O)O [cis 9,12,15-octadecatrienoic] |  | 
10 | 37 ± 3 | 52 ± 8 | CC/C=C\C/C=C\C/C=C\C/C=C\CCCCC(=O)O [delta-6,9,12,15-octadecatetraenoic acid] | the most potent of all the fatty acids tested | the most potent of all the fatty acids tested
